Measurements from PMC6530537, “Efficient development of stable and highly functionalised peptides targeting the CK2α/CK2β protein–protein interaction” (Chemical Science, 2019).
Where a chain is given by its changes, count along the chain named.

Legend:
CK2α [1] = target: T1, CK2α (Homo sapiens, UniProt P68400, K74A/K75A/K76A/R21S); test: Isothermal titration calorimetry, direct binding to CK2α; conditions: for Kd: ITC, 25°C, CK2α_KA, Tris 200 mM, NaCl 300 mM, 10% DMSO, single site binding model
T1 construct: CK2α_KA (residues 2 -329) contained four; His6 (N, cleaved yes); made in house; host or cells: Escherichia coli BL21(DE3)
T1 sequence (P68400 2-329 R21S/K74A/K75A/K76A): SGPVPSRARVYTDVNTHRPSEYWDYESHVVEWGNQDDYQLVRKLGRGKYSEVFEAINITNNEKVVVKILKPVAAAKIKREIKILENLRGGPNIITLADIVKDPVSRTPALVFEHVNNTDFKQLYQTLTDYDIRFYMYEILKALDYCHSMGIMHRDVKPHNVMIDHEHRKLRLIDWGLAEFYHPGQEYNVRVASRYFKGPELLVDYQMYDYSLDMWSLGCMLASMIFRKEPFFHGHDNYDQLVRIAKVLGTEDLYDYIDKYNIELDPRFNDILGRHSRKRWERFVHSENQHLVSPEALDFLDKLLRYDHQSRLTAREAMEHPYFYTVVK
Description: lysed using a high-pressure homogeniser.
The soluble supernatant was applied on a […]
mM NaCl, 1mM DTT, 1mM EDTA, pH 8.5). 100µL of the precision protease was loaded onto the […]
Pure protein was concentrated to 15 mg/mL and flash frozen in liquid N2. […]
1.4.3. Isothermal Calorimetry Titration
1.4.3.1. Direct binding assay
DMSO) and concentrated to 20-50 μM. Compounds in 100× stock solutions were diluted into the […]
Control titrations were performed, and the […]

HCT116 cells = test: cells; assay type: cell-based, human; conditions: 24 h
Description: (§1) page 47: 1.5. Biological experimental 1.5.1. […] The experiment was performed in duplicates. 1.5.2. […] 1.5.3. […] 46

U2OS cells [2] = test: cells; assay type: cell-based, human; conditions: 24 h
Description: as §1

U2OS cells [3] = test: Cell viability / apoptosis assay (CytoTox-Glo), 4 hour treatment; assay type: cell-based, human; conditions: after 4 hours
[4] = test system: CK2β localisation in U2OS cells; test: Immunofluorescence imaging of subcellular localisation of CK2β; assay type: cell-based, human; conditions: 30 μM, 15 minute incubation, CK2β antibody
Description: (§2) CellCarrier Ultra) in 40 μL of growth medium.
(§3) 1.5.5. Co-localisation experiments […]
(§4) confocal microscope with a 40X water immersion objective. Images were acquired with excitation at […]
(§5) green, red and blue channel respectively.
(§6) The following primary antibodies were used:
(§7) Antibody Organelle stained Supplier and catalogue Working concentration […]
(§8) Calnexin Endoplasmic reticulum Invitrogen, PA5-34665 1:750
(§9) Hoechst nuclei stain was used to a working concentration of 1:5000. […]
(§10) concentration 4%). Cells were fixed for 15 minutes, washed with PBS (3x) and blocked with 3% BSA + 0.1 % […] for 5 minutes. The blocking solution was then removed and 40 μL of the primary antibodies in BSA added. The plate was stored in the dark, at 4 °C overnight. The primary antibodies were washed with PBS (3x) and 40 μL of the secondary antibodies and Hoechst nuclei stain in BSA added. The plate was kept at 4 °C for 1 hour, washed with PBS (3x) and imaged as described above. Images were analysed using Fiji (ImageJ) software.

U2OS and HCT116 cells = conditions: proliferation, growth rate, viability (Fig. S5-S7)
Description: All cell lines used were supplied by AstraZeneca cell bank as mycoplasma free. U2OS bone
osteosarcoma and HCT116 colon carcinoma cells were maintained in RPMI -1640 (1x, Sigma Aldrich,
R0883) supplemented with 2 mM L-glutamine (Gibco, 25030-149) and fetal bovine serum (FBS, Gibco
Life Technologies, 10270-106) at a final concentration of 10%, hereafter known as growth medium. All
cells were grown at 37°C/5% CO2 in a humidified environment and all the assays were performed
using these culturing conditions.
HCT116 cells were seeded at 2000 cells per well into two flat-bottomed 384-well plates (PerkinElmer
CellCarrier Ultra) in 40 μL of growth medium. After 24 hours, the peptides dissolved in DMSO (10 mM)
were added to the cells (to final concentrations of 100, 75, 50, 32, 25, 16, 10, 7.7, 5, 3.2, 0 μM) using
HP Tecan dispenser and DMSO normalised to a final concentration of 1% (v/v). Cells were then
incubated in the presence of the compounds for 4 days and the rate of growth monitored with
IncuCyte Zoom (plate day 4). […]
inhibition was calculated relative to DMSO controls, normalised against day 0 and GI50 values were
calculated using Graphpad Prism. […]
minutes at room temperature, luminescence was read on a multimode plate reader (EnVision, […]
dead cells was measured. […]
calculated by subtracting the luminescent signal resulting from experimental cell death from total
luminescence death. […]

CK2α/CK2β interaction = target: T2, CK2α/CK2β interaction (Homo sapiens, UniProt P68400); test: ITC competition assay: CK2β binding to CK2α alone and in the presence of peptide; conditions: 25°C, 100 μM peptide, preliminary assay
T2 construct: CK2α_WT was used (residues 2-329); His6 (N, cleaved yes); made in house; host or cells: Escherichia coli BL21(DE3)
T2 sequence (P68400 2-329): T1 sequence (P68400 2-329 R21S/K74A/K75A/K76A) with S20R, A73K, A74K, A75K
Description: (§11) We then wanted to investigate whether the peptides would be able to inhibit the binding of the β subunit to the α subunit. To this end, the binding affinity of the regulatory β subunit for the catalytic domain was determined via ITC (Kd 9 nM). This was then repeated in the presence of 100 μM P1-C4 and P2-C4 (ESI, Table S4 ^†). […] As one of the key roles of CK2β is to recruit substrates to the kinase, the effect of PPI inhibition on substrate phosphorylation was studied using CK2β dependent and independent substrates. […] It should be noted that the kinase assay was performed using the pre-formed CK2α/β complex as the ability of CK2α to phosphorylate eIF2β requires the presence of the CK2β subunit.
1.4.3.2. Competition assay […]
concentrated to 4-6 μM. CK2β (9.3 mg/mL, 20 mM Tris pH 8.5, 500 mM NaCl) was diluted in Tris buffer (200 mM, NaCl, 300 mM, 10% DMSO) and concentrated to 40 μM. In a typical experiment, […]
performed at 150 second intervals. The syringe was loaded with CK2β and rotated at 750 rpm. The same experiment was repeated in the presence of the peptide s: compounds at 1 mM in DMSO were added to the solutions of CK2α and CK2β (prepared as described above) to a final concentration of […]
binding model using Origin software. […]
(CK2β-RAD) 200s, baseline 120s (assay buffer), control loading 200s (RAD), baseline 150s (assay buffer), ligand binding (association) 400s (CK2α K74A and CAM7117) and ligand dissociation 600s (assay buffer), followed by regeneration and next cycles. […]
GraphPad. The results are the average of 4 repeats and error shown as SEM.
Figure S10- Sensorgrams of the BLI competition experiments to assess the ability of P2-C4 to […] the CK2α/CK2β-RAD complex. a) Concentration of peptide ranging from 10 to 0.025 μM and 0 μM. b) Concentration of peptide ranging from 10 to 5 nM and 0 nM.
(1 picture or pasted object on this page, not shown here)

CK2α/CK2β-RAD complex = target: T3, CK2α/CK2β-RAD complex (Homo sapiens, UniProt P68400, K74A/K75A/K76A/R21S); test: Competition Bio-Layer Interferometry (BLI): formation of the CK2α/CK2β-RAD complex; assay type: binding; conditions: biotin-labelled CK2β-RAD 50 nM on streptavidin sensors, CK2α 50 nM, 20mM TRIS pH 8.0, 350mM NaCl, 0.5% Tween, average of 4 repeats, SEM, read-out: IC50, prevention of formation of the CK2α/CK2β-RAD complex
T3 construct: CK2α_KA (residues 2 -329) contained four; His6 (N, cleaved yes); made in house; host or cells: Escherichia coli BL21(DE3)
T3 sequence (P68400 2-329 R21S/K74A/K75A/K76A): T1 sequence (P68400 2-329 R21S/K74A/K75A/K76A)
Description: Octet RED96 (ForteBio) instrument was used for BLI analysis of biotin-labelled CK2β-RAD/CAM7117 interactions. Experiments were performed using SA-Streptavidin biosensors (ForteBio), which were regenerated with 10mM glycine, pH 1.7. 20mM TRIS pH 8.0, 350mM NaCl, 0.5% Tween was used as the assay buffer. For binding assays pre-wet sensors were loaded with biotin labelled CK2β-RAD protein at 50 nM in assay buffer. CK2α K74A was prepared at 50 nM in assay buffer and dilution series (from 0 to 10 μM) of CAM7117 were prepared in the assay buffer. The following experimental setup was used for each measurement cycle: regeneration 3× 5s, baseline 120s, sample loading (CK2β-RAD) 200s, baseline 120s (assay buffer), control loading 200s (RAD), baseline 150s (assay buffer), ligand binding (association) 400s (CK2α K74A and CAM7117) and ligand dissociation 600s (assay buffer), followed by regeneration and next cycles. During the control loading stage all […]
Regenerated SA-Streptavidin biosensors loaded with biotin labelled RAD were used to perform referencing. Data was processed using ForteBio Analysis 7.1 software and IC50 was calculated using GraphPad. The results are the average of 4 repeats and error shown as SEM. […]

CK2α/β holoenzyme = target: T4, CK2α/β holoenzyme (Homo sapiens, UniProt P68400); test: ADP-Glo kinase assay, CK2β-dependent substrate eIF2β, pre-formed CK2α/β complex; assay type: biochemical; conditions: 50 nM CK2α_WT + 50 nM CK2β_WT pre-formed, 25 μM ATP, 50 μM eIF2β peptide, 25 °C, 120 min, at least three independent repeats, read-out: IC50, inhibition of phosphorylation of the CK2β-dependent substrate eIF2β
T4 construct: CK2α_WT was used (residues 2-329); His6 (N, cleaved yes); made in house; host or cells: Escherichia coli BL21(DE3)
T4 sequence (P68400 2-329): T1 sequence (P68400 2-329 R21S/K74A/K75A/K76A) with S20R, A73K, A74K, A75K
Description: as §11
(§12) The kinase assays were performed using the ADP-Glo™ kinase assay kit (Promega). 50 nM CK2α_WT was incubated in the kinase reaction buffer (40 mM Tris pH 7.5, 200 mM NaCl, 20 mM MgCl2, 0.1 mg/mL BSA, 25 μM ATP, 50 μM substrate peptide (RRRADDSDDDD, Enzo Life Sciences […]
(§13) Inc. or eIF2β peptide […]), 5% (v/v) DMSO) in the presence of different concentrations of the inhibitor at 25 °C for 120 min. […] The luminescence was recorded using a PHERAstar FS plate reader (BMG LABTECH) with an integration time of 1 sec.
(§14) Percentage inhibition was calculated relative to a DMSO control after subtraction of the measurement for basal ATPase activity in the absence of substrate. […]

CK2α [5] = target: T5, CK2α (Homo sapiens, UniProt P68400); test: ADP-Glo kinase assay, β-independent substrate peptide RRRADDSDDDD; assay type: biochemical; conditions: 50 nM CK2α_WT, 25 μM ATP, 50 μM substrate, 25 °C, 120 min
T5 construct: CK2α_WT was used (residues 2-329); His6 (N, cleaved yes); made in house; host or cells: Escherichia coli BL21(DE3)
T5 sequence (P68400 2-329): T1 sequence (P68400 2-329 R21S/K74A/K75A/K76A) with S20R, A73K, A74K, A75K
Description: as §11, §12, §13, §14

U2OS cells [6] = assay type: cell-based, human
Description: as §2, §3, §4, §5, §6, §7, §8, §9, §10

For `CC(=O)NCC(=O)N[C@H]1Cn2cc(nn2)-c2cc(C(=O)NCCCCCC(=O)NCCCCCC(=O)N[C@H](CCCNC(=N)N)C(=O)N[C@H](CCCNC(=N)N)C(=O)N[C@H](CCCNC(=N)N)C(N)=O)cc(c2)-c2cn(nn2)C[C@@H](C(=O)NCC(=O)NCC(N)=O)NC(=O)[C@H](Cc2c[nH]cn2)NC(=O)[C@H](Cc2c[nH]c3ccccc23)NC(=O)[C@H](CCCCN)NC(=O)[C@H](Cc2ccccc2)NC(=O)CNC(=O)[C@H](Cc2ccc(O)cc2)NC(=O)[C@H](CC(C)C)NC(=O)[C@H](CCCNC(=N)N)NC1=O` [CAM7117], the Kd (CK2α [1]) was 200 nM, the GI50 (HCT116 cells) was 76000 ± 4000 nM and the GI50 (U2OS cells [2]) was 32000 ± 2000 nM. For the same compound, the Induction of apoptosis (U2OS cells [3]) was “induced apoptosis” and the “Nuclear localisation of CK2β after treatment” value [4] was “little or no fluorescence associated with the CK2β antibody was found in the nucleus”.

In the case of `C#Cc1cc(C#C)cc(C(=O)NCCCCCC(=O)NCCCCCC(=O)N[C@H](CCCNC(=N)N)C(=O)N[C@H](CCCNC(=N)N)C(=O)N[C@H](CCCNC(=N)N)C(N)=O)c1` [F1C4], the “Biological effects in cancer cells” value (U2OS and HCT116 cells) is reported as “No biological effects”.

`CC(=O)NCC(=O)N[C@H]1Cn2cc(nn2)-c2cc(C(=O)O)cc(c2)-c2cn(nn2)C[C@@H](C(=O)NCC(=O)NCC(N)=O)NC(=O)[C@H](Cc2c[nH]cn2)NC(=O)[C@H](Cc2c[nH]c3ccccc23)NC(=O)[C@H](CCCCN)NC(=O)[C@H](Cc2ccccc2)NC(=O)CNC(=O)[C@H](Cc2ccc(O)cc2)NC(=O)[C@H](CC(C)C)NC(=O)[C@H](CCCNC(=N)N)NC1=O` [P2-C4] was tested, and the “Improvement in Kd of the constrained peptide compared to the linear variant P2” value (CK2α [1]; ITC Kd, P2-C4 vs P2) was 300 fold, the Kd (CK2α [1]) was 150 nM and the “Binding of CK2β to CK2α in the presence of peptide” value (CK2α/CK2β interaction) was “no binding of CK2β to CK2α was detected”. For the same compound, the IC50 (CK2α/CK2β-RAD complex) was 150 ± 19 nM, the IC50 (CK2α/β holoenzyme) was 206 ± 29 nM and the “Effect on phosphorylation of a β-independent substrate peptide (RRRADDSDDDD)” value (CK2α [5]) was “did not affect the phosphorylation”.

“GXF2C4RLYGFKWHXF2C4GG (sidechain bridge or staple) [P2-F2C4, FITC-labelled analogue of CAM7117]” was tested, and the “Cellular uptake / cell permeability” value (U2OS cells [6]) was “successfully internalised”.
